Experimental data: PubChem BioAssay (NCI)
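Cells were grown in 96-well plates and exposed to each compound for 48 hours at five concentrations; endpoints were interpolated linearly between bracketing concentrations, or set to the highest concentration if not reached. Abbreviation: GI50, concentration required for 50% inhibition of growth. TGI denotes the concentration required for complete inhibition of growth.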

Experiments:
Assay in all cases: NCI tumour cell line growth inhibition, 48 h
HCC-2998 colon = test system: HCC-2998 colon
SF-539 CNS = test system: SF-539 CNS
RPMI-8226 leukemia = test system: RPMI-8226 leukemia
SF-268 CNS = test system: SF-268 CNS
MDA-MB-231 breast = test system: MDA-MB-231 breast
OVCAR-5 ovarian = test system: OVCAR-5 ovarian
OVCAR-4 ovarian = test system: OVCAR-4 ovarian
K-562 leukemia = test system: K-562 leukemia
EKVX NSCLC = test system: EKVX NSCLC
UACC-62 melanoma = test system: UACC-62 melanoma

Row | SMILES | GI50 (HCC-2998 colon) [µM] | TGI (HCC-2998 colon) [µM] | GI50 (SF-539 CNS) [µM] | TGI (SF-539 CNS) [µM] | GI50 (RPMI-8226 leukemia) [µM] | TGI (RPMI-8226 leukemia) [µM] | GI50 (SF-268 CNS) [µM] | TGI (SF-268 CNS) [µM] | GI50 (MDA-MB-231 breast) [µM] | TGI (MDA-MB-231 breast) [µM] | GI50 (OVCAR-5 ovarian) [µM] | TGI (OVCAR-5 ovarian) [µM] | GI50 (OVCAR-4 ovarian) [µM] | TGI (OVCAR-4 ovarian) [µM] | GI50 (K-562 leukemia) [µM] | TGI (K-562 leukemia) [µM] | GI50 (EKVX NSCLC) [µM] | TGI (EKVX NSCLC) [µM] | TGI (UACC-62 melanoma) [µM]
1 | CN(C)CCCNC(=O)c1cc2[nH]c3c(cnc4ccc([N+](=O)[O-])cc43)c(=O)c2n1C | 15.6 | 29 | 17.6 | 31.7 | 5.83 | 19.3 | 15.9 | 29.4 | 16.9 | 30.7 | 17.8 | 31.6 | 14 | 31.6 | 15.8 | 33.1 | 23.5 | 52.3 | –
2 | Nc1ccc(-c2nc3cc(F)ccc3s2)cc1Cl | – | 0.0255 | – | 45.1 | – | > 100 | – | > 100 | – | > 100 | – | 28.8 | – | > 100 | – | > 100 | – | > 48.2 | > 100
3 | O=c1cnn(C2OC(C(O)CO)C(O)C2O)c(=O)[nH]1 (stereo not drawn) | – | > 100 | – | > 100 | – | > 100 | – | > 100 | – | > 100 | – | > 100 | – | > 100 | – | > 100 | – | > 100 | > 100
4 | CCCn1c2ccccc2c2ccc3c(c21)C(=O)C=CC3=O | – | > 10 | – | > 6.41 | – | 5.4 | – | > 10 | – | 5.08 | – | > 10 | – | 4.07 | – | 2.24 | – | > 7.95 | > 10
5 | O=C1NC(NNc2ccccc2)=N/C1=C\c1ccccc1O | – | > 100 | – | > 100 | – | > 100 | – | > 100 | – | > 100 | – | > 100 | – | > 100 | – | > 100 | – | > 100 | > 100
6 | C=C(CCC/C(C)=C/C=C/[C@]1(C)CCCc2ccoc21)CC(=O)O | – | > 100 | – | > 100 | – | > 100 | – | > 100 | – | > 100 | – | > 100 | – | > 100 | – | > 100 | – | > 100 | > 100
7 | C1C2CC3CC1CC(Nc1nc(NC45CC6CC(CC(C6)C4)C5)nc(NC45CC6CC(CC(C6)C4)C5)n1)(C2)C3 | – | > 100 | – | > 100 | – | > 100 | – | > 100 | – | > 100 | – | > 100 | – | > 100 | – | > 100 | – | > 77.5 | > 100
8 | COc1ccc(N2C(=O)CC(C3CC(C(C)(C)C)CCC3=O)C2=O)cc1 (stereo not drawn) | – | > 100 | – | > 100 | – | > 100 | – | > 100 | – | > 100 | – | – | – | > 100 | – | > 100 | – | > 100 | > 100
9 | O=C(O)CC1NC(/C(=C/c2ccccc2)NC(=O)c2ccccc2)OC1=O (stereo not drawn) | – | > 100 | – | 44.2 | – | 63.4 | – | > 100 | – | 69.7 | – | > 100 | – | > 100 | – | 56 | – | > 100 | 57.9
10 | COc1cc(C(=O)n2c3ccc(Br)cc3c3nc4ccccc4nc32)cc(OC)c1OC | – | > 100 | – | > 100 | – | > 100 | – | > 100 | – | > 100 | – | > 100 | – | > 100 | – | > 100 | – | > 100 | > 100
11 | CC(C)(Cl)C(Br)CCC(C)(Cl)C(Br)CBr (stereo not drawn) | – | > 100 | – | 49.7 | – | 42.2 | – | > 100 | – | 47.2 | – | 48.7 | – | 87.3 | – | > 100 | – | 84.2 | > 100
12 | O=C(O)CC(CC(=O)O)C(=O)O | – | > 100 | – | > 100 | – | > 100 | – | > 100 | – | > 100 | – | > 100 | – | > 100 | – | > 100 | – | > 100 | > 100
13 | CC1(c2cccs2)CC(c2cccs2)=C(C#N)C(=C(C#N)C#N)N1 (stereo not drawn) | – | 31.1 | – | 70 | – | 61.5 | – | 35.9 | – | 50.6 | – | 39.3 | – | 32.3 | – | > 100 | – | 33.6 | 29.6
14 | Nc1ncnc2c1ccn2C/C=C\CO | – | > 100 | – | > 100 | – | > 100 | – | > 100 | – | > 100 | – | > 100 | – | > 100 | – | > 100 | – | > 100 | > 100
15 | CCCC[C@@H]1CCN2C[C@@H](O)[C@@H](O)[C@@H]2[C@H]1O | – | > 100 | – | > 100 | – | > 100 | – | > 100 | – | > 100 | – | > 100 | – | > 100 | – | > 100 | – | > 100 | > 100
16 | CN1CCN(C(=O)CCNC(=O)Cc2ccc(C(=O)c3ccccc3)cc2)CC1 | – | > 100 | – | > 100 | – | > 100 | – | > 100 | – | > 100 | – | > 100 | – | > 100 | – | > 100 | – | > 100 | > 100
17 | OCCCCCCCCCCCOc1ccc(C2OCC3(CO2)COC(c2ccc(OCCCCCCCCCCCO)cc2)OC3)cc1 (stereo not drawn) | – | > 50 | – | > 50 | – | > 50 | – | > 50 | – | > 50 | – | > 50 | – | > 50 | – | > 50 | – | > 50 | > 50
18 | Oc1cn(-c2ccc(Cl)cc2)nc1-c1nnc(-c2ccccc2)o1 | 0.739 | 5.91 | – | 27 | – | 31.9 | – | 17.9 | – | 36.1 | – | 39.3 | – | > 100 | – | 19.6 | – | > 60.1 | > 51.1
